Tests used:
Type in all cases: in vivo
[1] = tested on: Heliothis virescens (Tobacco budworm); assay: Heliothis virescens egg test on artificial diet; details: 96 h, 200 ppm (concentration in well 18 ppm), eggs 0-24 h old on artificial diet, egg mortality, larval mortality, growth regulation after 4 days, read-out: control of Heliothis virescens
Protocol: (§1) This Example illustrates the insecticidal and acaricidal properties of compounds of formula (I). The tests were performed as follows:
(§2) Cotton leaf discs were placed on agar in a 24-well microtiter plate and sprayed with test solutions at an application rate of 200 ppm. After drying, the leaf discs were infested with 5 L1 larvae. The samples were checked for mortality, feeding behavior, and growth regulation 3 days after treatment (DAT). The following compound gave at least 80% control of Spodoptera littoralis: A1, A2, A5, A6, A7, A8, A10, A11, A12, A13, A14, A15, A16, A17, A18, A19, A21, A22, A23, A24, A25, A30, A31, A32, A33, A34, A35, A39, A40, A41 A42, A43, A44, A45, A46, A47, A48, A49, A50, A51, A53, A54, A55, A59, A60, A61, A62. Heliothis virescens (Tobacco budworm): Eggs (0-24 h old) were placed in 24-well microtiter plate on artificial diet and treated with test solutions at an application rate of 200 ppm (concentration in well 18 ppm) by pipetting. After an incubation period of 4 days, samples were checked for egg mortality, larval mortality, and growth regulation. The following compound gave at least 80% control of Heliothis virescens: A1, A2, A3, A4, A5, A6, A7, A8, A10, A11, A12, A13, A14, A15, A16, A18, A19, A21, A22, A24, A25, A30, A31, A32, A33, A34, A35, A37, A38, A39, A40, A42, A43, A44, A45, A46, A47, A48, A49, A50, A51, A55, AA57, A58, A59, A60, A61, A62. Plutella xylostella (Diamond back moth): 24-well microtiter plate (MTP) with artificial diet was treated with test solutions at an application rate of 200 ppm (concentration in well 18 ppm) by pipetting. After drying, the MTP's were infested with L2 larvae (7-12 per well). After an incubation period of 6 days, samples were checked for larval mortality and growth regulation. The following compound gave at least 80% control of Plutella xylostella: A1, A2, A5, A6, A7, A8, A9, A10, A11, A12, A13, A14, A15, A16, A17, A18, A19, A20, A21, A22, A24, A25, A30, A31, A32, A33, A34, A35, A37, A38, A39, A40, A42, A43, A44, A45, A46, A47, A48, A49, A50, A51, A52, A53, A54, A55, A57, A58, A59, A60, A61, A62, B3. Diabrotica balteata (Corn root worm): A 24-well microtiter plate (MTP) with artificial diet was treated with test solutions at an application rate of 200 ppm (concentration in well 18 ppm) by pipetting. After drying, the MTP's were infested with L2 larvae (6-10 per well). After an incubation period of 5 days, samples were checked for larval mortality and growth regulation. The following compound gave at least 80% control of Diabrotica balteata: A1, A2, A5, A6, A7, A10, A11, A12, A13, A14, A15, A16, A17, A18, A19, A21, A22, A24, A25, A30, A31, A32, A33, A34, A35, A38, A39, A40, A42, A43, A44, A45, A46, A47, A48, A49, A50, A59, A60, A61, A62. Thrips tabaci (Onion thrips): Sunflower leaf discs were placed on agar in a 24-well microtiter plate and sprayed with test solutions at an application rate of 200 ppm. After drying, the leaf discs were infested with an […] population of mixed ages. After an incubation period of 7 days, samples were checked for mortality. The following compounds gave at least 80% control of Thrips tabaci: A1, A2, A5, A6, A7, A8, A10, A12, A13, A14, A15, A16, A17, A18, A19, A21, A24, A25, A30, A31, A32, A33, A34, A35, A39, A42, A43, A44, A45, A46, A47, A48, A49, A50, A51, A53, A54, A57, A58, A59, A60, A61, A62. Tetranychus urticae (Two-spotted spider mite): Bean leaf discs on agar in 24-well microtiter plates were sprayed with test solutions at an application rate of 200 ppm. After drying, the leaf discs are infested with mite populations of mixed ages. 8 days later, discs are checked for egg mortality, larval mortality, and adult mortality. The following compound gave at least 80% control of Tetranychus urticae: A1, A2, A4, A5, A6, A7, A8, A10, A11, A12, A13, A14, A15, A16, A17, A18, A19, A20, A21, A22, A30, A31, A32, A33, A34, A35, A39, A40, A41, A42, A43, A44, A45, A46, A47, A48, A49, A50, A51, A53, A54, A55, A57, A59, A60, A61, A62.

[2] = tested on: Diabrotica balteata (Corn root worm); assay: Diabrotica balteata larvae test on artificial diet; details: 120 h, 200 ppm (concentration in well 18 ppm), artificial diet, L2 larvae, larval mortality and growth regulation after 5 days
Protocol: as §1, §2

[3] = tested on: Thrips tabaci (Onion thrips); assay: Thrips tabaci sunflower leaf disc spray test; details: foliar, 168 h, 200 ppm spray on sunflower leaf discs, population of mixed ages, mortality after 7 days
Protocol: as §1, §2

[4] = tested on: Plutella xylostella (Diamond back moth); assay: Plutella xylostella larvae test on artificial diet; details: 144 h, 200 ppm (concentration in well 18 ppm), artificial diet, L2 larvae, larval mortality and growth regulation after 6 days
Protocol: as §1, §2

[5] = tested on: Tetranychus urticae (Two-spotted spider mite); assay: Tetranychus urticae bean leaf disc spray test; details: foliar, 192 h, 200 ppm spray on bean leaf discs, mite populations of mixed ages, egg, larval and adult mortality 8 days later, read-out: control of Tetranychus urticae
Protocol: as §1, §2

Measured: pest or weed control at 200 ppm

Cc1cc(C2CC(c3cc(Cl)cc(Cl)c3)(C(F)(F)F)ON2C)ccc1C(=O)NC1CS(=O)(=O)C1 (centres unmarked) [A19]
≥ 80%: all assays above

Cc1cc(C2=NOC(c3cc(Cl)cc(Cl)c3)(C(F)(F)F)C2O)ccc1C(=O)NC1CSC1 (centres unmarked) [A54]
≥ 80%: [3] | [4] | [5]

Cc1cc(C2=NN(C)C(c3cc(Cl)cc(Cl)c3)(C(F)(F)F)C2)ccc1C(=O)NC1CSC1 (centres unmarked) [A14]
≥ 80%: all assays above

Cc1cc(C2=NOC(c3cc(Cl)cc(Cl)c3)(C(F)(F)F)C2Br)ccc1C(=O)NC1CSC1 (centres unmarked) [A6]
≥ 80%: all assays above

O=C(NC1CSC1)c1ccc(C2=NOC(c3cc(Cl)cc(Cl)c3)(C(F)(F)F)C2)c2ccccc12 (centres unmarked) [A2]
≥ 80%: all assays above

Cc1cc(C2=NOC(c3cc(Cl)cc(Cl)c3)(C(F)(F)F)O2)ccc1C(=O)NC1CSC1 (centres unmarked) [A17]
not listed: [1]
≥ 80%: all other assays above

Cc1cc(C2=NOC(c3cc(Cl)cc(Cl)c3)(C(F)(F)F)C2O)ccc1C(=O)NC1CS(=O)(=O)C1 (centres unmarked) [A51]
not listed: [2]
≥ 80%: all other assays above

Cc1cc(C2=NOC(c3cc(Cl)cc(Cl)c3)(C(F)(F)F)C2O)ccc1C(=O)NC1C[S+]([O-])C1 (centres unmarked) [A53]
≥ 80%: [3] | [4] | [5]

Cc1cc(C2=NOC(c3cc(Cl)cc(Cl)c3)(C(F)(F)F)/C2=N/O)ccc1C(=O)NC1CS(=O)(=O)C1 (centres unmarked) [A55]
≥ 80%: [1] | [4] | [5]

O=C(NC1CS(=O)(=O)C1)c1ccc(C2=NOC(c3cc(Cl)cc(Cl)c3)(C(F)(F)F)C2)c2nsnc12 (centres unmarked) [A22]
not listed: [3]
≥ 80%: all other assays above
